Measured values from patent publication US10738024B2, “Compounds for treatment of angiogenesis-mediated diseases” (Indiana University Research and Technology Corporation, priority 2013, dated 2020).
“Also recorded” adds a separate entry of the source. Read-outs that look alike come from different tables or passages of the source.

Legend:
[1] = tested on: Y-79 retinoblastoma cells; assay: ALAMARBLUE proliferation assay in Y-79 retinoblastoma cells; assay type: cell-based; details: 50% growth inhibitory concentration, 48 hours
Method: (§1) For proliferation assays, cells (2500 per well) were seeded in a 96-well clear bottom black polystyrene plate in a total volume of 100 μL. HUVECs and HRECs were grown in EGM-2 and CSC+ media respectively, while 92-1 and Y79 cells were maintained in RPMI+10% FBS, penicillin/streptomycin and RB medium (IMDM+10% FBS+penicillin/streptomycin+10 μg/mL insulin+55 μM β-mercaptoethanol) respectively. After 24 hours of incubation of the plate at 37° C., the compounds were dissolved in DMSO and added in the concentration range of 500 μM to 0.5 nM. The plate was then incubated at 37° C. and 5% CO2 conditions for 48 hours before adding 11.1 μL of alamar blue reagent for each well. Four hours after the addition of ALAMARBLUE® reagent, fluorescence readings with excitation and emission wavelengths of 560 nm and 590 nm respectively were taken and the data was analyzed in GraphPad Prism software. The dose response curves were generated and the GI50 values were calculated using the equation: Y=100/(1+10^(X−Log GI50)) (Table 1).

NF-κB p65 = assay: TNF-α induced NF-κB p65 nuclear translocation in HRECs (immunofluorescence); assay type: cell-based, human; details: 10 ng/ml TNF-α for 20 minutes
Method: Cells (25,000 per coverslip) were seeded onto coverslips coated with Attachment Factor (Cell Systems, Kirkland, Wash., USA) and incubated at 37° C. and 5% CO2 for 24 hours in EGM-2. The cells were starved in 0.1% serum-EBM-2 for 8 hours followed by 0.1% serum-EBM-2 medium for one hour in the presence of different concentrations of SH-11052 (2). The cells were induced with 10 ng/ml TNF-α, a known pro-inflammatory cytokine and inducer of NF-κB, for 20 minutes and fixed with 4% paraformaldehyde solution for 20 minutes at room temperature. Since NF-κB exerts its transcriptional activity in the nucleus, blockade of stimulus-induced nuclear translocation of NF-κB is an indication of NF-κB pathway inhibition.
Cells were quickly washed three times in TBS and permeabilized by incubating with 0.5% Triton X-100 for 10 minutes. The cells were blocked in 10% block solution (DAKO) in TBS plus 1% BSA followed by incubation with an antibody against NF-κB p65 (1:50 dilution). Dylight 488-conjugated goat anti-mouse secondary antibody (1:200 dilution) was used to probe the NF-κB p65 antibody. The coverslips were mounted using Vectashield mounting medium containing DAPI (Vector Labs) for nuclear staining. The cells were imaged using an LSM 700 confocal microscope (Zeiss). […]

HRECs [2] = assay: ALAMARBLUE proliferation assay in HRECs; assay type: cell-based, human; details: for GI50: Homo sapiens, HREC; for in vitro anti-proliferative activity in HRECs: result in words, FIGS. 6B, 6D, 14
Method: (§2) Particularly, in a 96-well clear bottom black plate, cells (2,500 cells per well) were seeded in a total volume of 100 μL EGM-2. After 24 hours of incubation of the plate at 37° C. and 5% CO2, a DMSO solution of synthetic cremastranone (1) or SH-11052 (2) was added in the concentration range of 0.5 nM to 500 μM (final DMSO concentration=1%). The plate was then further incubated for 48 hours before adding 11.1 μL of ALAMARBLUE® reagent to each well. Four hours after the addition of ALAMARBLUE®, fluorescence readings with excitation and emission wavelengths of 560 nm and 590 nm, respectively, were taken and the data were analyzed in GraphPad Prism software (v. 6.0). Dose response curves were generated and the GI50 values were calculated using the following equation: Y=100/(1+10^(X−Log GI50)).
as §1

HRECs [3] = assay: Apoptosis of HRECs by cleaved caspase-3 staining; assay type: cell-based, human
Method: Further, cells (25,000 per coverslip) were seeded onto coverslips coated with Attachment Factor (Cell Systems, Kirkland, Wash., USA) and incubated at 37° C. and 5% CO2 in EGM-2 until ˜80% confluence was achieved. The cells were then incubated for 4 hours with the indicated concentrations of SH-11052 (2). Staurosporine (SP; 1 μM) was used as a positive control. After the incubation, the cells were fixed in 4% paraformaldehyde for 20 minutes at room temperature followed by three quick washes in Tris buffered saline pH 7.4 (TBS). The cells were permeabilized by incubating with 0.5% Triton X-100 for 10 minutes and then blocked in 10% block solution (DAKO, Glostrup, Denmark) in TBS plus 1% bovine serum albumin (BSA) for 1 hour. The cells were then incubated with cleaved caspase-3 (D175) antibody (1:200 dilution) overnight at 4° C. Dylight 555 conjugated goat anti-rabbit secondary antibody (1:400) was used to probe the cleaved caspase-3 antibody. The coverslips were mounted using Vectashield mounting medium containing DAPI (Vector Labs, Burlingame, Calif., USA) for nuclear staining. The cells were imaged using an LSM 700 confocal microscope (Zeiss, Thornwood, N.Y., USA).

HUVECs = assay: ALAMARBLUE proliferation assay in HUVECs; assay type: cell-based, human; details: for GI50: 50% growth inhibitory concentration, alamarBlue
Method: as §2, §1

[4] = tested on: 92-1 uveal melanoma cells; assay: ALAMARBLUE proliferation assay in 92-1 uveal melanoma cells; assay type: cell-based; details: for GI50: 50% growth inhibitory concentration, 48 hours, alamarBlue
Method: as §1

[5] = 50% growth inhibitory concentration, 48 hours, alamarBlue, read-out: GI50 HREC

| Compound | GI50 [1] [µM] | nuclear translocation of NF-κB (p65) upon TNF-α stimulation / NF-κB signaling (NF-κB p65; listed as SH-11052 (2)) | GI50 (HRECs [2]; [5]) [µM] | in vitro anti-proliferative activity in HRECs (HRECs [2]) | apoptosis of HRECs (cleaved caspase-3 staining) (HRECs [3]; 100 μM, 4 hours) | GI50 (HUVECs; Homo sapiens, HUVEC, 48 h) [µM] | in vitro anti-proliferative activity in HUVECs (HUVECs; result in words, FIGS. 6A, 6C) | GI50 [4] [µM] | nuclear translocation of NF-κB (p65) upon TNF-α stimulation / NF-κB signaling (NF-κB p65; listed as SH-11037 (6c)) | GI50 (HRECs [2]; text of Example 15, FIG. 14, read-out: HREC GI50) [µM] | apoptosis of HRECs (HRECs [3]; concentration not given, FIGS. 16A-16B, listed as SH-11037 (6c)) | GI50 (HUVECs; 48 hours, listed as 6c (SH-11037), read-out: GI50 HUVEC) [µM] | toxicity to a uveal melanoma cell line ([4]; result in words) |
| --- | --- | --- | --- | --- | --- | --- | --- | --- | --- | --- | --- | --- | --- |
| COc1ccc(CC2COc3cc(OC)c(O)c(O)c3C2=O)cc1O (single isomer, unassigned) [Compound 2] | 87 | blocked NF-κB signaling; also recorded: inhibited | 43 | demonstrated in vitro anti-proliferative activity | negligible apoptosis | 18 | demonstrated in vitro anti-proliferative activity | 6 | – | – | – | – | – |
| COc1ccc(CC2COc3cc(OC)c(OC)c(OC)c3C2=O)cc1OC(=O)[C@H](Cc1ccccc1)NC(=O)OC(C)(C)C (stereo partly drawn) [Compound 6c, (2S)-2-methoxy-5-((5,6,7-trimethoxy-4-oxochroman-3-yl)methyl)phenyl 2-((tert-butoxycarbonyl)amino)-3-phenylpropanoate] | 12 | – | 0.087 | inhibition of proliferation | – | 1 | – | 400 | did not inhibit NF-κB signaling | 0.15 | did not cause apoptosis; also recorded: did not promote apoptosis | 0.746 | non-toxic |
